Laboratory results as given in US9505734B2, “Phenyl C-glucoside derivative containing deoxyglucose structure, preparation method and use thereof” (Tianjin Institute of Pharmaceutical Research, priority 2012, dated 2016).

The molecules below were run on Mice (assay: not given). Conditions: both, mouse, in vivo, 750 mg/kg, 1 week.
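For Behaviors after administration with the compound to be tested (deaths) in this document: mice weighing 18–20 g, both sexes in equal proportion within each group.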

Row | Structure (SMILES) | Behaviors after administration with the compound to be tested (deaths) [dead]
1 | OCC1OC(c2ccc(F)c(Cc3cc4ccccc4s3)c2)C(O)C(O)C1O (stereo not shown) [drawing 265] | 7
2 | CCOc1ccc(Cc2cc(C3SC(CO)C(O)C(O)C3O)c(OC)cc2C)cc1 (stereo not shown) [drawing 277] | 10

Same assay, conditions: mice, 10 mice/group, single intragastric dose 750 mg/kg, within one week

Row | Structure (SMILES) | Behaviors after administration with the compound to be tested (deaths) [dead]
3 | CCOc1ccc(Cc2cc(C3SC(CO)C(O)CC3O)c(OC)cc2C)cc1 (stereo not shown) [drawing 301] | 3
4 | Cc1ccc(C2OC(C)C(O)CC2O)cc1Cc1ccc(-c2ccc(F)cc2)s1 (stereo not shown) [drawing 305] | 0
5 | CCOc1ccc(Cc2cc(C3OC(CO)C(O)C(O)C3O)ccc2Cl)cc1 (stereo not shown) [drawing 264] | 8
6 | CCOc1ccc(Cc2cc(C3CC(O)C(O)C(CO)S3)c(OC)cc2C)cc1 (stereo not shown) [drawing 291] | 3
7 | OCC1OC(c2ccc(Cl)c(Cc3ccc(O[C@H]4CCOC4)cc3)c2)C(O)CC1O (stereo partly shown) [drawing 274] | 0
8 | CC1OC(c2ccc(F)c(Cc3cc4ccccc4s3)c2)CC(O)C1O (stereo not shown) [drawing 295] | 1
9 | COc1ccc(Cc2cc(C3OC(C)C(O)C(O)C3O)ccc2Cl)cc1 (stereo not shown) [drawing 278] | 7
10 | OCC1CC(O)C(O)C(c2ccc(F)c(Cc3cc4ccccc4s3)c2)O1 (stereo not shown) [drawing 284] | 1
11 | CCc1ccc(Cc2c(Cl)ccc3c2COC32CC(O)C(O)C(CO)O2)cc1 (stereo not shown) [drawing 290] | 2
12 | OCC1OC(c2ccc(Cl)c(Cc3ccc(O[C@H]4CCOC4)cc3)c2)CC(O)C1O (stereo partly shown) [drawing 287] | 2
13 | OCC1CC(O)C(O)C(c2ccc(Cl)c(Cc3ccc(O[C@H]4CCOC4)cc3)c2)O1 (stereo partly shown) [drawing 297] | 2
14 | CCc1ccc(Cc2c(Cl)ccc3c2COC32OC(CO)C(O)C(O)C2O)cc1 (stereo not shown) [drawing 266] | 7
15 | CCOc1ccc(Cc2cc([C@]34OC[C@](CO)(O3)[C@@H](O)[C@H](O)[C@H]4O)ccc2Cl)cc1 [drawing 267] | 9
16 | CCOc1ccc(Cc2cc(C3CC(O)C(O)C(CO)O3)ccc2Cl)cc1 (stereo not shown) [drawing 270] | 2
17 | CCOc1ccc(Cc2cc(C3OC(C)CC(O)C3O)ccc2Cl)cc1 (stereo not shown) [drawing 294] | 1
18 | CCc1ccc(Cc2c(Cl)ccc3c2COC32OC(C)C(O)C(O)C2O)cc1 (stereo not shown) [drawing 299] | 3
19 | Cc1ccc(C2OC(C)C(O)C(O)C2O)cc1Cc1ccc(-c2ccc(F)cc2)s1 (stereo not shown) [drawing 281] | 4
20 | CCOc1ccc(Cc2cc(C3SC(CO)CC(O)C3O)c(OC)cc2C)cc1 (stereo not shown) [drawing 289] | 1
21 | CCOc1ccc(Cc2cc([C@]34OC[C@](CO)(O3)[C@@H](O)C[C@H]4O)ccc2Cl)cc1 [drawing 304] | 3
22 | CCc1ccc(Cc2c(Cl)ccc3c2COC32OC(CO)C(O)CC2O)cc1 (stereo not shown) [drawing 288] | 5
23 | Cc1ccc(C2OC(CO)C(O)CC2O)cc1Cc1ccc(-c2ccc(F)cc2)s1 (stereo not shown) [drawing 282] | 3
24 | CCOc1ccc(Cc2cc([C@@]34OC[C@@](CO)(C[C@H](O)[C@H]3O)O4)ccc2Cl)cc1 [drawing 293] | 4
25 | CC1OC(c2ccc(F)c(Cc3cc4ccccc4s3)c2)C(O)C(O)C1O (stereo not shown) [drawing 273] | 2
26 | CCOc1ccc(Cc2cc(C3CCC(O)C(CO)S3)c(OC)cc2C)cc1 (stereo not shown) [drawing 307] | 0
27 | Cc1ccc(C2CC(O)C(O)C(CO)O2)cc1Cc1ccc(-c2ccc(F)cc2)s1 (stereo not shown) [drawing 272] | 5
28 | Cc1ccc(C2OC(CO)CC(O)C2O)cc1Cc1ccc(-c2ccc(F)cc2)s1 (stereo not shown) [drawing 271] | 3

The molecules below were run on SD rats (type 2 diabetes model) (assay: model for rat urine glucose excretion (glucose-oxidase method)). Conditions: comparison in words, rat urine glucose excretion model, 6 mg/kg.
Format: in vivo
Description: The health SD rats are injected intraperitoneally with multiple low doses of streptozotocin for modeling (type 2 diabetes model) after feeding with high-fat and high-sucrose diet, and the content of blood glucose is measured before and after modeling. After the modeling successful, the rats for modeling are randomly divided (8 rats/group) into one blank group (administering the same volume of 0.5% CMC sodium solution) and several groups for compounds to be tested (6 mg/kg) according to the content of 24-hour urine glucose and the body weight. Rats in each group are fasted for 16 hours before experiment. The experimental rats are administered intragastrically with glucose (2 g/kg) at 0.5 h after intragastrical administration with compounds to be tested. The urine is collected at the time-period of 0-12 h after administration, and the urine glucose values are measured at each time-period by glucose-oxidase method.
The inhibiting activity of the cocrystal of I-D1-6 and L-proline on SGLT2 is measured by the model for rat urine glucose excretion.
The health SD rats are injected intraperitoneally with multiple low doses of streptozotocin for modeling (type 2 diabetes model) after feeding with high-fat and high-sucrose diet for one month, and the content of blood glucose is measured before and after modeling. After the modeling successful, the rats for modeling are randomly divided (8 rats/group) into one blank group (administering the same volume of 0.5% CMC sodium solution) and groups of tested compound (6 mg/kg) according to the content of 24-hour urine glucose and the body weight. Rats in each group are fasted for 16 hours before experiment. The experimental rats are administered intragastrically with the glucose (2 g/kg) at 0.5 h after intragastrical administration with the cocrystal of I-D1-6 and L-proline prepared in Example 138. The urine is collected at the time-period of 0-12 h after administration, and the urine glucose values are measured at each time-period by glucose-oxidase method.

Row | Structure (SMILES) | urine glucose excretion effect (in words)
29 | CCOc1ccc(Cc2cc([C@@H]3O[C@H](CO)[C@@H](O)C[C@H]3O)ccc2Cl)cc1 [I-D1-3, (1S)-1-[4-chloro-3-(4-ethoxybenzyl)phenyl]-1,3-dideoxy-D-glucose] | stronger urine glucose excretion effect
30 | CCOc1ccc(Cc2cc([C@@H]3O[C@H](CO)C[C@H](O)[C@H]3O)ccc2Cl)cc1 [I-D1-4, (1S)-1-[4-chloro-3-(4-ethoxybenzyl)phenyl]-1,4-dideoxy-D-glucose] | stronger urine glucose excretion effect
31 | CCOc1ccc(Cc2cc([C@@H]3C[C@@H](O)[C@H](O)[C@@H](CO)O3)ccc2Cl)cc1 [I-D1-2, (1S)-1-[4-chloro-3-(4-ethoxybenzyl)phenyl]-1,2-dideoxy-D-glucose] | stronger urine glucose excretion effect

Same assay, conditions: type 2 diabetes model SD rats, 6 mg/kg intragastrically, glucose 2 g/kg at 0.5 h, urine collected 0-12 h

Row | Structure (SMILES) | Urine glucose excretion (mg/200 g body weight of the rat)
32 | CCOc1ccc(Cc2cc(C3SC(CO)CC(O)C3O)c(OC)cc2C)cc1 (stereo not shown) [drawing 247] | 677 mg/200 g body weight of the rat
33 | COc1ccc(Cc2cc(C3OC(C)C(O)C(O)C3O)ccc2Cl)cc1 (stereo not shown) [drawing 243] | 457 mg/200 g body weight of the rat
34 | Cc1ccc(C2OC(C)C(O)C(O)C2O)cc1Cc1ccc(OC2CCOC2)cc1 (stereo not shown) | 611 mg/200 g body weight of the rat
35 | COc1ccc(Cc2cc(C3OC(CO)C(O)CC3O)ccc2Cl)cc1 (stereo not shown) | 235 mg/200 g body weight of the rat
36 | OCC1OC(c2ccc(F)c(Cc3cc4ccccc4s3)c2)C(O)CC1O (stereo not shown) [drawing 240] | 656 mg/200 g body weight of the rat
37 | CCc1ccc(Cc2cc(C3OC4(CC4)C(O)C(O)C3O)ccc2C)cc1 (stereo not shown) | 609 mg/200 g body weight of the rat
38 | CCOc1ccc(Cc2cc(C3OC(C)CC(O)C3O)ccc2Cl)cc1 (stereo not shown) [drawing 252] | 765 mg/200 g body weight of the rat
39 | C#Cc1ccc(Cc2cc(C3OC(CO)CC(O)C3O)ccc2Cl)cc1 (stereo not shown) | 213 mg/200 g body weight of the rat
40 | Cc1ccc(C2OC(CO)CC(O)C2O)cc1Cc1ccc(-c2ccc(F)cc2)s1 (stereo not shown) [drawing 228] | 801 mg/200 g body weight of the rat
41 | CCc1ccc(Cc2c(Cl)ccc3c2COC32OC(C)C(O)C(O)C2O)cc1 (stereo not shown) [drawing 255] | 755 mg/200 g body weight of the rat
42 | Cc1ccc(C2OC(C)C(O)C(O)C2O)cc1Cc1ccc(-c2ccc(F)cc2)s1 (stereo not shown) [drawing 238] | 723 mg/200 g body weight of the rat
43 | Cc1ccc(C2CC(O)C(O)C(CO)O2)cc1Cc1ccc(-c2ccc(F)cc2)s1 (stereo not shown) [drawing 229] | 698 mg/200 g body weight of the rat
44 | CCc1ccc(Cc2cc(C3CC(O)C(O)C(CO)O3)ccc2C)cc1 (stereo not shown) | 378 mg/200 g body weight of the rat
45 | CCc1ccc(Cc2c(Cl)ccc3c2COC32OC(CO)C(O)C(O)C2O)cc1 (stereo not shown) [drawing 198] | 587 mg/200 g body weight of the rat
46 | COc1ccc(Cc2cc(C3CC(O)C(O)C(CO)O3)ccc2Cl)cc1 (stereo not shown) | 426 mg/200 g body weight of the rat
47 | CCOc1ccc(Cc2cc(C3OC(CO)C(O)C(O)C3O)ccc2Cl)cc1 (stereo not shown) [drawing 194] | 743 mg/200 g body weight of the rat
48 | CCOc1ccc(Cc2cc(C3OC(CO)CC(O)C3O)ccc2Cl)cc1 (stereo not shown) [drawing 226] | 880 mg/200 g body weight of the rat
49 | COc1ccc(Cc2cc(C(C)C)cc(C3OC(C)C(O)C(O)C3O)c2)c(F)c1 (stereo not shown) | 523 mg/200 g body weight of the rat
50 | CCOc1ccc(Cc2cc(C3SC(C)C(O)C(O)C3O)c(OC)cc2C)cc1 (stereo not shown) [drawing 258] | 698 mg/200 g body weight of the rat
51 | CCOc1ccc(Cc2cc(C3CC(O)C(O)C(CO)S3)c(OC)cc2C)cc1 (stereo not shown) [drawing 249] | 786 mg/200 g body weight of the rat
52 | CC1OC(c2ccc(F)c(Cc3cc4ccccc4s3)c2)C(O)C(O)C1O (stereo not shown) [drawing 230] | 749 mg/200 g body weight of the rat
53 | CCc1ccc(Cc2c(Cl)ccc3c2COC32CC(O)C(O)C(CO)O2)cc1 (stereo not shown) [drawing 248] | 717 mg/200 g body weight of the rat
54 | CCOc1ccc(Cc2cc([C@]34OC[C@](CO)(O3)[C@@H](O)C[C@H]4O)ccc2Cl)cc1 [drawing 260] | 711 mg/200 g body weight of the rat
55 | COc1ccc(Cc2cc(C3OC(CO)CC(O)C3O)ccc2Cl)c(F)c1 (stereo not shown) | 288 mg/200 g body weight of the rat
